Assay results reported in publication PMC9081329, “Pharmacokinetics, Mass Balance, Excretion, and Tissue Distribution of Plasmalogen Precursor PPI-1011” (Frontiers in Cell and Developmental Biology, 2022).

Assay: Repeat dose tissue distribution study (QWBA, LSC of blood and plasma), 15 daily doses
Assay type: in vivo, Sprague-Dawley rats
Protocol: Three male rats were administered [^14C]PPI-1011 at 100 mg/kg (100 μCi/kg) once daily for 15 days. One rat was sacrificed at each of the following time points after the administration of the day 15 dose: 24, 48, and 96 h. Terminal blood was collected by cardiac puncture directly into tubes with K2EDTA, an aliquot was stored at 4°C until LSC was performed for radioactivity, while the remaining blood was processed to plasma and stored at −20°C until LSC. Following blood collection, the carcasses were frozen in a cold bath with hexanes and dry ice for at least 8 min and then dried and stored at −70°C for at least 12 h. The carcasses were transferred to a −20°C freezer for at least 12 h before embedding.
QWBA was used to determine radioactivity concentrations in the caecum (contents and mucosa), large intestine (contents and mucosa), small intestine (contents and mucosa), stomach (contents and mucosa), brain, choroid plexus, spinal cord, bone, skin, adrenal gland, pineal body, pituitary gland, thyroid gland, liver, kidney (cortex, medulla and whole kidney), urinary bladder (contents and wall), brown fat, white fat, eye (lens, uveal tract and whole eye), epididymis, prostate gland, testis, ovary, uterus, lung, exorbital lachrymal gland, Harderian gland, pancreas, salivary gland, skeletal muscle, myocardium, cardiac blood, bone marrow, lymph node, spleen, and thymus. As well, LSC was used to determine the total radioactivity in the whole blood and plasma.
The whole-body cryosectioning technique described by ([Ullberg, 1977]) was the basis for embedding and cryosectioning the rats assigned to this study. Each frozen carcass was shaved, and then the limbs and tail were removed prior to embedding. Chilled (4°C) 3% CMC (low viscosity) was utilized to provide a firm support of reinforced ice around each rat and for a secure attachment to the microtome stage. Upon thorough freezing of the embedding medium surrounding each rat, the frozen CMC block was removed from the freezing bath and four 3/8 inch holes were drilled into the block. One cryosection quality control standard (CQCS) was prepared with a known amount of radioactivity and at least 1 ml aliquots were added to each of the four drilled holes. CQCS data were utilized to evaluate the overall performance of the QWBA assay.
Each frozen rat was sagittally trimmed (50–100 μm) at −20°C until exposure of a few target tissues employing a Leica Cryomacrocut heavy-duty microtome (Leica Microsystems Inc.,). Disposable stainless steel Feather type H45L knives (Feather Safety Razor Co., Ltd.) were utilized for trimming and sectioning each frozen rat. Several thinner sections (50 μm) were discarded prior to obtaining multiple 50 μm sections at various cryosectioning levels for QWBA analysis. Upon the collection of at least 60 target tissues in multiple cryosectioning levels, the cryosections were kept in the Cryomacrocut cryochamber for a minimum of 18 h for dehydration depending upon the number of cryosections within the cryochamber. After dehydration was complete, the cryosections were transferred to ambient temperature for processing. Mounted whole-body cryosections and a set of 15 standards were sandwiched between a standard phosphor screen and an exposure cassette. All cryosections were exposed to the phosphor screen for 4-days in a cabinet protected with lead prior to scanning using a Typhoon PhosphorImager (Cytiva). MCID™ Analysis software (InterFocus Ltd.) was utilized to generate a calibration curve of the STD nominal concentrations (nCi/g) versus PhosphorImager response (counts/μm^2 minus background) by weighted (1/x) linear regression analysis ([Potchoiba et al., 1995]; [Potchoiba et al., 1998]). The linear regression curve was then utilized to determine the concentration (nCi/g) of total radioactivity in whole-body tissues and blood. Radioactivity concentrations were expressed as μg Eq/g based on the specific activity of the compound in the final dose formulations. […]

[1] = 48 hr post 15 daily oral 100 mg/kg
[2] = 96 hr post 15 daily oral 100 mg/kg

CC/C=C\C/C=C\C/C=C\C/C=C\C/C=C\C/C=C\CCC(=O)O[C@H](CO[14CH2]CCCCCCCCCCCCCCC)COC(=O)CCCCC1CCSS1 (some centres unmarked) [[^14C]PPI-1011]
Radioactivity concentration, Colliculus [1]: 68.0 μg equivalents/g | Radioactivity concentration, Diaphragm [1]: 172 μg equivalents/g | Radioactivity concentration, Esophagus [1]: 94.8 μg equivalents/g | Radioactivity concentration, Exorbital Lacrimal Gland [1]: 82.5 μg equivalents/g | Radioactivity concentration, Gastric Mucosa [1]: 307 μg equivalents/g | Radioactivity concentration, Harderian Gland [1]: 69.6 μg equivalents/g | Radioactivity concentration, Intra-Orbital Lacrimal Gland [1]: 84.5 μg equivalents/g | Radioactivity concentration, Kidney [1]: 221 μg equivalents/g | Radioactivity concentration, Large Intestines [1]: 122 μg equivalents/g | Radioactivity concentration, Liver [1]: 186 μg equivalents/g | Radioactivity concentration, Lung [1]: 181 μg equivalents/g | Radioactivity concentration, Lymph Node [1]: 165 μg equivalents/g | Radioactivity concentration, Medulla Oblongata [1]: 48.4 μg equivalents/g | Radioactivity concentration, Muscle [1]: 95.4 μg equivalents/g | Radioactivity concentration, Myocardium [1]: 222 μg equivalents/g | Radioactivity concentration, Nasal Turbinates [1]: 184 μg equivalents/g | Radioactivity concentration, Ocular - Lens [1]: 5.05 μg equivalents/g | Radioactivity concentration, Ocular - Uveal Tract [1]: 59.6 μg equivalents/g | Radioactivity concentration, Ocular - Vitreous Body [1]: 2.01 μg equivalents/g | Radioactivity concentration, Ocular - Whole Eye [1]: 15.8 μg equivalents/g | Radioactivity concentration, Olfactory Bulb [1]: 35.0 μg equivalents/g | Radioactivity concentration, Pancreas [1]: 312 μg equivalents/g | Radioactivity concentration, Parotid Gland [1]: 257 μg equivalents/g | Radioactivity concentration, Pineal Gland [1]: 156 μg equivalents/g | Radioactivity concentration, Pituitary Gland [1]: 226 μg equivalents/g | Radioactivity concentration, Prostate [1]: 72.1 μg equivalents/g | Radioactivity concentration, Renal Cortex [1]: 244 μg equivalents/g | Radioactivity concentration, Renal Medulla [1]: 183 μg equivalents/g | Radioactivity concentration, Salivary Gland [1]: 271 μg equivalents/g | Radioactivity concentration, Seminal Vesicles [1]: 60.7 μg equivalents/g | Radioactivity concentration, Skin - Non-Pigmented [1]: 101 μg equivalents/g | Radioactivity concentration, Small Intestines [1]: 164 μg equivalents/g | Radioactivity concentration, Spinal Cord [1]: 51.2 μg equivalents/g | Radioactivity concentration, Spleen [1]: 209 μg equivalents/g | Radioactivity concentration, Stomach [1]: 78.9 μg equivalents/g | Radioactivity concentration, Testis [1]: 47.2 μg equivalents/g | Radioactivity concentration, Thalamus [1]: 42.3 μg equivalents/g | Radioactivity concentration, Thymus [1]: 131 μg equivalents/g | Radioactivity concentration, Thyroid [1]: 297 μg equivalents/g | Radioactivity concentration, Whole Brain [1]: 43.7 μg equivalents/g | Radioactivity concentration, Adipose - Brown [2]: 1301 μg equivalents/g | Radioactivity concentration, Adipose - Brown (Vessel Wall) [2]: 1249 μg equivalents/g | Radioactivity concentration, Adipose - Subcutaneous [2]: 1373 μg equivalents/g | Radioactivity concentration, Adipose - Visceral [2]: 1265 μg equivalents/g | Radioactivity concentration, Adrenal Gland [2]: 1636 μg equivalents/g | Radioactivity concentration, Bladder Wall [2]: 101 μg equivalents/g | Radioactivity concentration, Blood - QWBA [2]: 29.5 μg equivalents/g | Radioactivity concentration, Bone Marrow [2]: 77.3 μg equivalents/g | Radioactivity concentration, Bone Surface [2]: 10.5 μg equivalents/g | Radioactivity concentration, Cerebellum [2]: 55.8 μg equivalents/g | Radioactivity concentration, Cerebrum [2]: 47.5 μg equivalents/g | Radioactivity concentration, Choroid Plexus [2]: 121 μg equivalents/g | Radioactivity concentration, Colliculus [2]: 67.3 μg equivalents/g | Radioactivity concentration, Diaphragm [2]: 125 μg equivalents/g | Radioactivity concentration, Esophagus [2]: 87.1 μg equivalents/g | Radioactivity concentration, Exorbital Lacrimal Gland [2]: 71.0 μg equivalents/g | Radioactivity concentration, Gastric Mucosa [2]: 210 μg equivalents/g | Radioactivity concentration, Harderian Gland [2]: 47.9 μg equivalents/g | Radioactivity concentration, Intra-Orbital Lacrimal Gland [2]: 76.5 μg equivalents/g | Radioactivity concentration, Kidney [2]: 238 μg equivalents/g | Radioactivity concentration, Large Intestines [2]: 94.3 μg equivalents/g | Radioactivity concentration, Liver [2]: 129 μg equivalents/g | Radioactivity concentration, Lung [2]: 191 μg equivalents/g | Radioactivity concentration, Lymph Node [2]: 127 μg equivalents/g | Radioactivity concentration, Medulla Oblongata [2]: 51.8 μg equivalents/g | Radioactivity concentration, Muscle [2]: 97.9 μg equivalents/g | Radioactivity concentration, Myocardium [2]: 172 μg equivalents/g | Radioactivity concentration, Nasal Turbinates [2]: 80.2 μg equivalents/g | Radioactivity concentration, Ocular - Lens [2]: 6.92 μg equivalents/g | Radioactivity concentration, Ocular - Uveal Tract [2]: 68.9 μg equivalents/g | Radioactivity concentration, Ocular - Vitreous Body [2]: 2.06 μg equivalents/g | Radioactivity concentration, Ocular - Whole Eye [2]: 18.2 μg equivalents/g | Radioactivity concentration, Olfactory Bulb [2]: 42.2 μg equivalents/g | Radioactivity concentration, Pancreas [2]: 333 μg equivalents/g | Radioactivity concentration, Parotid Gland [2]: 220 μg equivalents/g | Radioactivity concentration, Pineal Gland [2]: 179 μg equivalents/g | Radioactivity concentration, Pituitary Gland [2]: 191 μg equivalents/g | Radioactivity concentration, Prostate [2]: 84.8 μg equivalents/g | Radioactivity concentration, Renal Cortex [2]: 250 μg equivalents/g | Radioactivity concentration, Renal Medulla [2]: 186 μg equivalents/g | Radioactivity concentration, Salivary Gland [2]: 227 μg equivalents/g | Radioactivity concentration, Seminal Vesicles [2]: 54.7 μg equivalents/g | Radioactivity concentration, Skin - Non-Pigmented [2]: 129 μg equivalents/g | Radioactivity concentration, Small Intestines [2]: 112 μg equivalents/g | Radioactivity concentration, Spinal Cord [2]: 53.0 μg equivalents/g | Radioactivity concentration, Spleen [2]: 147 μg equivalents/g | Radioactivity concentration, Stomach [2]: 109 μg equivalents/g | Radioactivity concentration, Testis [2]: 43.3 μg equivalents/g | Radioactivity concentration, Thalamus [2]: 45.4 μg equivalents/g | Radioactivity concentration, Thymus [2]: 107 μg equivalents/g | Radioactivity concentration, Thyroid [2]: 259 μg equivalents/g | Radioactivity concentration, Whole Brain [2]: 47.3 μg equivalents/g | Decline of radioactivity from peak concentration, subcutaneous adipose (by 96 HPD, 15 daily doses): ~1.1 fold | Decline of radioactivity from peak concentration, visceral adipose (by 96 HPD, 15 daily doses): ~1.2 fold | Uptake in the brain following 15 doses versus single dose, on average (rat, in vivo): 16-18 times
